Measurements reported in PubChem BioAssay (NCI).
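The compound was tested at five concentrations on cells cultured in 96-well plates, with a 48-hour exposure period. Definition used: TGI = concentration required for complete inhibition of growth.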

Experiments:
Experiment in all cases: NCI tumour cell line growth inhibition, 48 h
[1] = tested on: SK-MEL-5 melanoma
[2] = tested on: SNB-75 CNS
[3] = tested on: HCC-2998 colon
[4] = tested on: NCI-H460 lung
[5] = tested on: UO-31 renal
[6] = tested on: DU-145 prostate
[7] = tested on: HL-60(TB) leukemia
[8] = tested on: RXF 393 renal
[9] = tested on: MOLT-4 leukemia
[10] = tested on: MDA-N
[11] = tested on: SR leukemia
[12] = tested on: SN12C renal
[13] = tested on: CCRF-CEM leukemia
[14] = tested on: HS 578T breast
[15] = tested on: U251 CNS
[16] = tested on: NCI-H226 lung
[17] = tested on: UACC-62 melanoma
[18] = tested on: IGROV1 ovarian
[19] = tested on: SF-539 CNS

Structure (SMILES)	TGI [1]	TGI [2]	TGI [3]	TGI [4]	TGI [5]	TGI [6]	TGI [7]	TGI [8]	TGI [9]	TGI [10]	TGI [11]	TGI [12]	TGI [13]	TGI [14]	TGI [15]	TGI [16]	TGI [17]	TGI [18]	TGI [19]
CNC(=O)C1CCCN1C(=O)C(Cc1cnc[nH]1)NC(=O)C1CCC(=O)N1 (centres undefined)	> 100 µM	> 100 µM	> 100 µM	> 100 µM	> 100 µM	> 100 µM	> 100 µM	> 100 µM	> 100 µM	> 100 µM	> 100 µM	> 100 µM	> 100 µM	> 100 µM	> 100 µM	> 100 µM	> 100 µM	> 100 µM	–
COC(=O)c1cc(C)ccc1C1CN=NC12Cc1cccc(C)c1C2=O (centres undefined)	31.9 µM	> 100 µM	> 100 µM	72.3 µM	> 100 µM	> 100 µM	32.8 µM	> 100 µM	54.7 µM	> 100 µM	> 100 µM	> 100 µM	99 µM	> 100 µM	> 100 µM	> 100 µM	–	> 100 µM	> 100 µM
CC1=CC(=O)[C@@H](O)[C@]2(C)[C@H]3[C@@]4(O)OC[C@@]35[C@@H](C[C@@H]12)OC(=O)C(OC(=O)CC1=CCCC1)[C@H]5[C@@H](C)[C@H]4O (some centres undefined)	0.0713 µM	0.155 µM	0.232 µM	0.133 µM	0.449 µM	4.66 µM	0.237 µM	0.234 µM	2.53 µM	0.163 µM	> 100 µM	0.435 µM	0.136 µM	0.136 µM	–	0.0632 µM	0.21 µM	0.112 µM	0.0676 µM
CCC1c2[nH]c3ccccc3c2C[C@H]2C(=O)N3CCC[C@H]3C(=O)N12 (some centres undefined)	> 100 µM	–	> 100 µM	–	> 100 µM	> 100 µM	> 100 µM	> 100 µM	> 100 µM	> 100 µM	> 100 µM	> 100 µM	–	> 100 µM	> 100 µM	> 100 µM	> 100 µM	> 100 µM	–
O=P(c1ccccc1)(c1ccccc1)c1ccc2c(c1)OCCOCCOCCOCCO2	> 100 µM	> 100 µM	> 100 µM	> 100 µM	> 100 µM	> 100 µM	> 100 µM	–	> 100 µM	> 100 µM	> 100 µM	> 100 µM	> 100 µM	> 100 µM	–	> 100 µM	> 100 µM	> 100 µM	> 100 µM
O=[N+]([O-])c1ccc(N/N=C(\c2ccccc2)c2ccccn2)nc1	26.5 µM	28.4 µM	> 59.6 µM	22.8 µM	4.69 µM	36.8 µM	31.7 µM	31.8 µM	> 67.2 µM	> 100 µM	> 83.7 µM	> 68.9 µM	> 91.5 µM	26 µM	> 81.8 µM	–	> 54.3 µM	20.5 µM	15.3 µM
COc1ccc2oc(=O)c(-c3nc4ccccc4o3)cc2c1	> 100 µM	> 100 µM	> 100 µM	> 100 µM	> 100 µM	> 100 µM	> 100 µM	> 100 µM	> 100 µM	> 100 µM	49.7 µM	> 100 µM	> 100 µM	> 100 µM	> 100 µM	> 100 µM	> 100 µM	> 100 µM	> 100 µM
C/C=N\n1c(C)c(C#N)c(C#N)c1N	> 100 µM	> 100 µM	> 100 µM	–	> 100 µM	> 100 µM	> 100 µM	> 100 µM	> 100 µM	> 100 µM	> 100 µM	> 100 µM	> 100 µM	> 100 µM	> 100 µM	> 100 µM	> 100 µM	> 100 µM	> 100 µM
CC1=NN(C(=O)CC(=O)Nc2cccc(C)c2)C(=O)C1N=Nc1ccc(S(=O)(=O)c2ccc(N=NC3C(=O)N(C(=O)CC(=O)Nc4cccc(C)c4)N=C3C)cc2)cc1 (centres undefined)	> 100 µM	> 100 µM	> 100 µM	> 100 µM	> 100 µM	> 100 µM	> 100 µM	> 100 µM	> 100 µM	> 100 µM	> 100 µM	> 100 µM	> 100 µM	> 100 µM	> 100 µM	> 100 µM	> 100 µM	> 100 µM	> 100 µM
O=[N+]([O-])c1cc(-c2nnc(C34CC5CC(CC(C5)C3)C4)o2)cc([N+](=O)[O-])c1	44.8 µM	> 100 µM	> 100 µM	> 100 µM	> 100 µM	> 100 µM	> 100 µM	> 100 µM	> 100 µM	> 100 µM	> 100 µM	> 100 µM	> 100 µM	> 100 µM	> 100 µM	> 100 µM	> 100 µM	> 100 µM	> 100 µM
C=C(C)[C@H]1C[C@@H]2O[C@@](O)(/C(C)=C\C(=O)/C=C(/C)C[C@H]3OC(=O)[C@@]24O[C@H]34)[C@@H]1O	> 100 µM	> 100 µM	> 100 µM	> 100 µM	–	> 100 µM	> 100 µM	97.6 µM	> 100 µM	> 100 µM	> 100 µM	> 100 µM	> 100 µM	> 100 µM	> 100 µM	> 100 µM	> 100 µM	> 100 µM	> 100 µM
Nc1ncnc2c1ncn2C1C=CC(COS(N)(=O)=O)C1 (centres undefined)	> 100 µM	> 100 µM	> 100 µM	> 100 µM	> 100 µM	> 100 µM	30.1 µM	> 100 µM	> 100 µM	> 100 µM	> 100 µM	> 100 µM	> 100 µM	> 100 µM	> 100 µM	> 100 µM	> 100 µM	> 100 µM	7.12 µM
CCCNC(=O)Cn1c(C)cc2ccccc21	> 100 µM	> 100 µM	> 100 µM	–	> 100 µM	> 100 µM	> 100 µM	> 100 µM	> 100 µM	> 100 µM	> 100 µM	> 100 µM	> 100 µM	> 100 µM	> 100 µM	> 100 µM	> 100 µM	> 100 µM	> 100 µM
NC(=NCCN1CCCCCCC1)NO	> 100 µM	> 100 µM	> 100 µM	> 100 µM	> 100 µM	> 100 µM	> 100 µM	> 100 µM	> 100 µM	> 100 µM	> 100 µM	> 100 µM	> 100 µM	> 100 µM	–	> 100 µM	> 100 µM	92.6 µM	> 100 µM
COC(=O)C1(Cc2cccc(C)c2)Cc2c(C)cccc2C1=O (centres undefined)	> 100 µM	> 100 µM	> 100 µM	> 100 µM	> 100 µM	> 100 µM	> 100 µM	> 100 µM	> 100 µM	34.5 µM	> 100 µM	> 100 µM	> 100 µM	> 100 µM	> 100 µM	> 100 µM	> 100 µM	> 100 µM	> 100 µM
N#C/C(C(=S)Nc1ccccc1)=C(/N)N1CCCC1	> 100 µM	–	> 100 µM	> 100 µM	> 100 µM	> 100 µM	> 100 µM	> 100 µM	> 100 µM	> 100 µM	> 100 µM	> 100 µM	> 100 µM	> 100 µM	> 100 µM	> 100 µM	> 100 µM	> 100 µM	> 100 µM
C=C1CC2CC(=O)C(O)C(C1)C2 (centres undefined)	> 100 µM	> 100 µM	> 100 µM	> 100 µM	> 100 µM	> 100 µM	> 100 µM	> 100 µM	> 100 µM	> 100 µM	> 100 µM	> 100 µM	> 100 µM	> 100 µM	–	> 100 µM	> 100 µM	–	> 100 µM
COc1ccc2nc3cc([N+](=O)[O-])ccc3c(Nc3ccc(S(=O)(=O)N=C(N)N)cc3)c2c1	36.4 µM	–	39.3 µM	25 µM	> 100 µM	> 100 µM	31.3 µM	> 100 µM	14.7 µM	> 100 µM	4.68 µM	> 100 µM	36.5 µM	> 100 µM	> 100 µM	> 100 µM	46.9 µM	–	> 100 µM
Clc1ccc(C2=C(c3ccccc3)C(c3ccc(Cl)cc3)N3C(=N[C@H]4CCCC[C@@H]43)N2)cc1 (some centres undefined)	24.8 µM	30 µM	10.4 µM	11.1 µM	26.4 µM	25.9 µM	10.9 µM	27.6 µM	22.7 µM	28 µM	5.56 µM	–	26 µM	49.5 µM	23.3 µM	47.9 µM	31.4 µM	26.6 µM	29.7 µM
CCCC(=O)NC(C(=O)OCC)(N1CCOCC1)C(F)(F)F (centres undefined)	> 100 µM	> 100 µM	> 100 µM	–	> 100 µM	> 100 µM	> 100 µM	> 100 µM	> 100 µM	> 100 µM	> 100 µM	> 100 µM	> 100 µM	> 100 µM	> 100 µM	> 100 µM	> 100 µM	> 100 µM	> 100 µM
